Laboratory results reported in ChEMBL document CHEMBL1629583, “Establishment of in vitro susceptibility testing methodologies and comparative activities of piperacillin in combination with the penem {beta}-lactamase inhibitor BLI-489” (2009).
In brackets after ≈: the same amount, converted by molar mass.

Tests used:
Type in all cases: functional
[1] = test system: Bacteroides fragilis; test: Antimicrobial activity against Bacteroides fragilis clinical isolate after 18 to 22 hrs by broth microdilution method
[2] = test system: Bacteroides thetaiotaomicron; test: Antimicrobial activity against Bacteroides thetaiotaomicron clinical isolate after 18 to 22 hrs by broth microdilution method
[3] = test system: Bacteroides uniformis; test: Antimicrobial activity against Bacteroides uniformis clinical isolate after 18 to 22 hrs by broth microdilution method
[4] = test system: Clostridium perfringens; test: Antimicrobial activity against Clostridium perfringens clinical isolate after 18 to 22 hrs by broth microdilution method
[5] = test system: Peptostreptococcus anaerobius; test: Antimicrobial activity against Peptostreptococcus anaerobius clinical isolate after 18 to 22 hrs by broth microdilution method
[6] = test system: Parvimonas micra; test: Antimicrobial activity against Peptostreptococcus micros clinical isolate after 18 to 22 hrs by broth microdilution method
[7] = test system: Staphylococcus aureus; test: Antimicrobial activity against methicillin-resistant Staphylococcus aureus clinical isolate after 18 to 22 hrs by broth microdilution method
[8] = test system: Staphylococcus aureus; test: Antimicrobial activity against methicillin-susceptible Staphylococcus aureus clinical isolate after 18 to 22 hrs by broth microdilution method
[9] = test system: Staphylococcus epidermidis; test: Antimicrobial activity against methicillin-resistant Staphylococcus epidermidis clinical isolate after 18 to 22 hrs by broth microdilution method
[10] = test system: Staphylococcus epidermidis; test: Antimicrobial activity against methicillin-susceptible Staphylococcus epidermidis clinical isolate after 18 to 22 hrs by broth microdilution method
[11] = test system: Staphylococcus haemolyticus; test: Antimicrobial activity against Staphylococcus haemolyticus clinical isolate after 18 to 22 hrs by broth microdilution method
[12] = test system: Enterococcus faecalis; test: Antimicrobial activity against Enterococcus faecalis clinical isolate after 18 to 22 hrs by broth microdilution method
[13] = test system: Enterococcus faecium; test: Antimicrobial activity against Enterococcus faecium clinical isolate after 18 to 22 hrs by broth microdilution method
[14] = test system: Enterococcus faecalis; test: Antimicrobial activity against vancomycin-resistant Enterococcus faecalis clinical isolate after 18 to 22 hrs by broth microdilution method
[15] = test system: Enterococcus faecium; test: Antimicrobial activity against vancomycin-resistant Enterococcus faecium clinical isolate after 18 to 22 hrs by broth microdilution method
[16] = test system: Enterococcus avium; test: Antimicrobial activity against Enterococcus avium clinical isolate after 18 to 22 hrs by broth microdilution method
[17] = test system: Streptococcus pneumoniae; test: Antimicrobial activity against penicillin-susceptible Streptococcus pneumoniae clinical isolate after 18 to 22 hrs by broth microdilution method
[18] = test system: Streptococcus pneumoniae; test: Antimicrobial activity against penicillin-intermediate Streptococcus pneumoniae clinical isolate after 18 to 22 hrs by broth microdilution method
[19] = test system: Streptococcus pneumoniae; test: Antimicrobial activity against penicillin-resistant Streptococcus pneumoniae clinical isolate after 18 to 22 hrs by broth microdilution method
[20] = test system: Streptococcus pyogenes; test: Antimicrobial activity against Streptococcus pyogenes clinical isolate after 18 to 22 hrs by broth microdilution method
[21] = test system: Enterococcus casseliflavus; test: Antimicrobial activity against Enterococcus casseliflavus clinical isolate after 18 to 22 hrs by broth microdilution method
[22] = test system: Enterococcus durans; test: Antimicrobial activity against Enterococcus durans clinical isolate after 18 to 22 hrs by broth microdilution method
[23] = test system: Enterococcus gallinarum; test: Antimicrobial activity against Enterococcus gallinarum clinical isolate after 18 to 22 hrs by broth microdilution method
[24] = test system: Enterococcus hirae; test: Antimicrobial activity against Enterococcus hirae clinical isolate after 18 to 22 hrs by broth microdilution method
[25] = test system: Streptococcus agalactiae; test: Antimicrobial activity against Streptococcus agalactiae clinical isolate after 18 to 22 hrs by broth microdilution method

Structure (SMILES): CO[C@@]1(NC(=O)Cc2cccs2)C(=O)N2C(C(=O)O)=C(COC(N)=O)CS[C@@H]21 [CEFOXITIN]
- MIC50 [1]: 8 µg/mL (≈ 18.7 µM)
- MIC90 [1]: 16 µg/mL (≈ 37.4 µM)
- MIC [2]: 16 µg/mL (≈ 37.4 µM)
- MIC50 [2]: 16 µg/mL (≈ 37.4 µM)
- MIC90 [2]: 32 µg/mL (≈ 74.9 µM)
- MIC50 [3]: 16 µg/mL (≈ 37.4 µM)
- MIC90 [3]: 16 µg/mL (≈ 37.4 µM)
- MIC50 [4]: 1 µg/mL (≈ 2.34 µM)
- MIC90 [4]: 2 µg/mL (≈ 4.68 µM)
- MIC50 [5]: 0.25 µg/mL (≈ 0.585 µM)
- MIC90 [5]: 1 µg/mL (≈ 2.34 µM)
- MIC50 [6]: 0.5 µg/mL (≈ 1.17 µM)
- MIC90 [6]: 0.5 µg/mL (≈ 1.17 µM)

Structure (SMILES): CN[C@H](CC(C)C)C(=O)N[C@H]1C(=O)N[C@@H](CC(N)=O)C(=O)N[C@H]2C(=O)N[C@H]3C(=O)N[C@H](C(=O)N[C@H](C(=O)O)c4cc(O)cc(O)c4-c4cc3ccc4O)[C@H](O)c3ccc(c(Cl)c3)Oc3cc2cc(c3O[C@@H]2O[C@H](CO)[C@@H](O)[C@H](O)[C@H]2O[C@H]2C[C@](C)(N)[C@H](O)[C@H](C)O2)Oc2ccc(cc2Cl)[C@H]1O [VANCOMYCIN]
- MIC50 [7]: 1 µg/mL (≈ 0.69 µM)
- MIC90 [7]: 1 µg/mL (≈ 0.69 µM)
- MIC50 [8]: 0.5 µg/mL (≈ 0.345 µM)
- MIC90 [8]: 1 µg/mL (≈ 0.69 µM)
- MIC50 [9]: 2 µg/mL (≈ 1.38 µM)
- MIC90 [9]: 2 µg/mL (≈ 1.38 µM)
- MIC50 [10]: 1 µg/mL (≈ 0.69 µM)
- MIC90 [10]: 1 µg/mL (≈ 0.69 µM)
- MIC50 [11]: 1 µg/mL (≈ 0.69 µM)
- MIC90 [11]: 1 µg/mL (≈ 0.69 µM)
- MIC50 [12]: 1 µg/mL (≈ 0.69 µM)
- MIC90 [12]: 2 µg/mL (≈ 1.38 µM)
- MIC50 [13]: 0.5 µg/mL (≈ 0.345 µM)
- MIC90 [13]: 1 µg/mL (≈ 0.69 µM)
- MIC50 [14]: > 32 µg/mL
- MIC90 [14]: > 32 µg/mL
- MIC [15]: > 32 µg/mL
- MIC50 [15]: > 32 µg/mL
- MIC90 [15]: > 32 µg/mL
- MIC [16]: 0.25 µg/mL (≈ 0.173 µM)
- MIC50 [16]: 0.25 µg/mL (≈ 0.173 µM)
- MIC90 [16]: 0.5 µg/mL (≈ 0.345 µM)
- MIC50 [17]: 0.12 µg/mL (≈ 0.0828 µM)
- MIC90 [17]: 0.25 µg/mL (≈ 0.173 µM)
- MIC50 [18]: 0.25 µg/mL (≈ 0.173 µM)
- MIC90 [18]: 0.25 µg/mL (≈ 0.173 µM)
- MIC50 [19]: 0.25 µg/mL (≈ 0.173 µM)
- MIC90 [19]: 0.25 µg/mL (≈ 0.173 µM)
- MIC50 [20]: 0.25 µg/mL (≈ 0.173 µM)
- MIC90 [20]: 0.25 µg/mL (≈ 0.173 µM)
- MIC50 [21]: 0.5 µg/mL (≈ 0.345 µM)
- MIC90 [21]: 4 µg/mL (≈ 2.76 µM)
- MIC50 [22]: 0.5 µg/mL (≈ 0.345 µM)
- MIC90 [22]: 4 µg/mL (≈ 2.76 µM)
- MIC50 [23]: 0.5 µg/mL (≈ 0.345 µM)
- MIC90 [23]: 4 µg/mL (≈ 2.76 µM)
- MIC50 [24]: 0.5 µg/mL (≈ 0.345 µM)
- MIC90 [24]: 4 µg/mL (≈ 2.76 µM)
- MIC [25]: 0.25 µg/mL (≈ 0.173 µM)
- MIC50 [25]: 0.25 µg/mL (≈ 0.173 µM)
- MIC90 [25]: 0.5 µg/mL (≈ 0.345 µM)
